Consider 23 molecules from patent US12172975B2, “1H-indazole carboxamides as receptor-interacting protein kinase 1 inhibitors (RIPK1)” (BRISTOL-MYERS SQUIBB COMPANY, priority 2018, dated 2024).

A word on the IC50: it is the point on the concentration scale where inhibition reaches its midpoint.

In experiment [1] the test system is MLKL phosphorylation in HT29-L23 human colorectal adenocarcinoma cells. Kind of experiment: MLKL Phosphorylation High-Content Assay. It is filed as cell-based. The note with it: Homo sapiens, 6 h, necroptosis induced with TNFα, SMAC mimetic and Z-VAD, read-out: pMLKL (IC50). The method in brief: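 Following fixation and staining for phospho-S358 MLKL with Hoechst nuclear counterstain, high-content imaging quantified phosphorylation in HT29-L23 cells challenged 6 h with TNFα 35 ng/mL, SMAC mimetic 700 nM and Z-VAD 140 nM. Nec-1s at 6.25 μM defined full inhibition; 4-parameter logistic fits yielded IC50 and Ymax.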

For experiment [2], the target named is His-GST-TVMV-hRIPK1 (1-324) (Homo sapiens (Human), UniProt Q13546). Description: RIPK1 HTRF Binding Assay. As to conditions: read-out: RIPK1 HTRF (IC50); FRET probe displacement, 1 h at rt. For orientation: Time-resolved FRET reads energy transfer from a long-lived donor to a nearby acceptor.
Protocol: A solution was prepared containing 0.2 nM Anti GST-Tb (Cisbio, 61GSTTLB), 90.6 nM probe and 1 nM His-GST-TVMV-hRIPK1 (1-324) in FRET Buffer (20 mM HEPES, 10 mM MgCl2, 0.015% Brij-35, 4 mM DTT, 0.05 mg/mL BSA). Using Formulatrix Tempest, the detection antibody/enzyme/probe solution (2 mL) was dispensed into wells of a 1536 plate (Black Low Binding Polystyrene 1536 Plate (Corning, 3724)) containing 10 nL of compounds of interest at appropriate concentration in DMSO. The plate was incubated at rt for 1 h. FRET was measured using the EnVision plate reader (Excitation: 340 nm, Emission: 520 nm/495 nM). Total signal (0% inhibition) was calculated from wells containing 10 nL DMSO only.

Structures can show the parent of a compound that is named as a salt.

His-GST-TVMV-hRIPK1 (1-324), sequence (Q13546 1-324): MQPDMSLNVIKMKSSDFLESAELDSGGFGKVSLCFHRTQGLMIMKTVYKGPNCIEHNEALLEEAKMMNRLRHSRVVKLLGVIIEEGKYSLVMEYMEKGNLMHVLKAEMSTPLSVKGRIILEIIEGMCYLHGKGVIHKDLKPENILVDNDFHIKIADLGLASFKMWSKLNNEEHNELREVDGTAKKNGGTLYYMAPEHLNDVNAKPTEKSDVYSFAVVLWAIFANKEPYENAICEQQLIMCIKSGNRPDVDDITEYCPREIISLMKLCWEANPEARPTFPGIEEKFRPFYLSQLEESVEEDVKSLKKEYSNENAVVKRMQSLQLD

`CNC(=O)c1n[nH]c2cc(-c3cc(C(=O)NCc4cccc(OC(F)(F)F)c4)c(OC)nc3C)ccc12` [Example 160, 6-[6-methoxy-2-methyl-5-({[3-(trifluoromethoxy)-phenyl]methyl}carbamoyl)-pyridin-3-yl]-N-methyl-1H-indazole-3-carboxamide]: the IC50 in experiment [1] is 120 nM; in experiment [2], 27 nM.

With `CNC(=O)c1n[nH]c2cc(-c3cc(C(=O)NC(C)c4ccccc4OC(F)(F)F)c(C)nc3C)ccc12` (stereo not shown) [Example 162, 6-[2,6-dimethyl-5-({1-[2-(trifluoromethoxy)phenyl]-ethyl}carbamoyl)pyridin-3-yl]-N-methyl-1H-indazole-3-carboxamide], the IC50 in experiment [1] was determined as 74 nM; in experiment [2] it was 43 nM.

Regarding `[2H]C([2H])([2H])Oc1ncc(-c2ccc3c(C(=O)NCC4CC4)n[nH]c3c2)cc1C(=O)NCCC(=O)OC(C)(C)C` [Example 165, tert-butyl 3-[(5-{3-[(cyclopropyl-methyl)carbamoyl]-1H-indazol-6-yl}-2-(deutero)methoxypyridin-3-yl)formamido]propanoate], the figures for the IC50 in experiment [1] and in experiment [2] were 15 nM and 140 nM, respectively.

With `[2H]C([2H])([2H])Oc1ncc(-c2ccc3c(C(=O)NCC4CC4)n[nH]c3c2)cc1C(=O)NC(C)c1cccc(OC(F)(F)F)c1` (stereo not shown) [Example 166, N-(cyclopropylmethyl)-6-[6-(deutero)methoxy-5-({1-[3-(tri-fluoromethoxy)phenyl]ethyl}-carbamoyl)pyridin-3-yl]-1H-indazole-3-carboxamide], the values for the IC50 in experiment [1] and in experiment [2] were 34 nM and 83 nM, respectively.

With `[2H]C([2H])([2H])Oc1ncc(-c2ccc3c(C(=O)NCC4CC4)n[nH]c3c2)cc1C(=O)NC(C)c1ccccc1OC(F)(F)F` (stereo not shown) [Example 168, N-(cyclopropylmethyl)-6-[6-(deutero)methoxy-5-({1-[2-(tri-fluoromethoxy)phenyl]ethyl}-carbamoyl)pyridin-3-yl]-1H-indazole-3-carboxamide], the results for the IC50 in experiment [1] and in experiment [2] were 17 nM and 38 nM, respectively.

For `COc1ncc(-c2ccc3c(C(=O)NC4CCN(S(C)(=O)=O)CC4)n[nH]c3c2)cc1C(=O)NCc1ccccc1OC(F)(F)F` [Example 169, N-(1-methanesulfonylpiperidin-4-yl)-6-[6-methoxy-5-({[2-(trifluoromethoxy)phenyl]-methyl}carbamoyl)pyridin-3-yl]-1H-indazole-3-carboxamide], the IC50 was 31 nM in experiment [1] and 22 nM in experiment [2].

In the case of `CCNC(=O)c1n[nH]c2cc(-c3cnc(OC)c(C(=O)NCc4ccccc4OC(F)(F)F)c3)ccc12` [Example 170, N-ethyl-6-[6-methoxy-5-({[2-(trifluoromethoxy)phenyl]-methyl}carbamoyl)pyridin-3-yl]-1H-indazole-3-carboxamide], the IC50 in experiment [1] is 23 nM; in experiment [2], 7.9 nM.

As to `COc1ncc(-c2ccc3c(C(=O)NCC4CC4)n[nH]c3c2)cc1C(=O)NCc1ccccc1OC(F)(F)F` [Example 172, N-(cyclopropylmethyl)-6-[6-methoxy-5-({[2-(trifluoro-methoxy)phenyl]methyl}-carbamoyl)pyridin-3-yl]-1H-indazole-3-carboxamide], the IC50 in experiment [1] came to 28 nM; in experiment [2], 14 nM.

As to `CCCCNC(=O)c1n[nH]c2cc(-c3cnc(OC)c(C(=O)NCc4ccccc4OC(F)(F)F)c3)ccc12` [Example 175, N-butyl-6-[6-methoxy-5-({[2-(trifluoromethoxy)phenyl]-methyl}carbamoyl)pyridin-3-yl]-1H-indazole-3-carboxamide], the IC50 is 29 nM in experiment [1] and 9.9 nM in experiment [2].

On to `CCCNC(=O)c1n[nH]c2cc(-c3cnc(OC)c(C(=O)NCc4ccccc4OC(F)(F)F)c3)ccc12` [Example 176, 6-[6-methoxy-5-({[2-(trifluoro-methoxy)phenyl]methyl}carbam-oyl)pyridin-3-yl]-N-propyl-1H-indazole-3-carboxamide], for which the IC50 turned out to be 16 nM in experiment [1] and 10 nM in experiment [2].

For the molecule `COc1ncc(-c2ccc3c(C(=O)NCCCN4CCCC4=O)n[nH]c3c2)cc1C(=O)NCc1ccccc1OC(F)(F)F` [Example 177, 6-[6-methoxy-5-({[2-(trifluoro-methoxy)phenyl]methyl}-carbamoyl)pyridin-3-yl]-N-[3-(2-oxopyrrolidin-1-yl)propyl]-1H-indazole-3-carboxamide], the IC50 was determined as 15 nM in experiment [1] and 2.9 nM in experiment [2].

On to `COc1ncc(-c2ccc3c(C(=O)NC4CCN(C(C)=O)CC4)n[nH]c3c2)cc1C(=O)NCc1ccccc1OC(F)(F)F` [Example 180, N-(1-acetylpiperidin-4-yl)-6-[6-methoxy-5-({[2-(trifluoro-methoxy)phenyl]methyl}carbam-oyl)pyridin-3-yl]-1H-indazole-3-carboxamide], for which the IC50 in experiment [1] came out at 39 nM; in experiment [2] it was 19 nM.

Consider `COc1ncc(-c2ccc3c(C(=O)NC4CC(=O)N(C(C)C)C4)n[nH]c3c2)cc1C(=O)NCc1ccccc1OC(F)(F)F` (stereo not shown) [Example 181, 6-[6-methoxy-5-({[2-(trifluoro-methoxy)phenyl]methyl}carbam-oyl)pyridin-3-yl]-N-[5-oxo-1-(propan-2-yl)pyrrolidin-3-yl]-1H-indazole-3-carboxamide, TFA], for which the IC50 in experiment [1] was found to be 82 nM; in experiment [2] it was 27 nM.

Regarding `COc1ncc(-c2ccc3c(C(=O)NCCO)n[nH]c3c2)cc1C(=O)NCc1ccccc1OC(F)(F)F` [Example 182, N-(2-hydroxyethyl)-6-[6-meth-oxy-5-({[2-(trifluoromethoxy)-phenyl]methyl}carbamoyl)-pyridin-3-yl]-1H-indazole-3-carboxamide], the results for the IC50 in experiment [1] and in experiment [2] were 83 nM and 12 nM, respectively.

`[2H]C([2H])([2H])C([2H])([2H])NC(=O)c1n[nH]c2cc(-c3cnc(OC)c(C(=O)NCc4ccccc4OC(F)(F)F)c3)ccc12` [Example 183, N-[(1,1,2,2,2-deutero)ethyl]-6-[6-methoxy-5-({[2-(trifluoro-methoxy)phenyl]methyl}carbam-oyl)pyridin-3-yl]-1H-indazole-3-carboxamide]: the values for the IC50 in experiment [1] and in experiment [2] were 15 nM and 5.9 nM, respectively.

As to `CCN(CC)C1CCC(NC(=O)c2n[nH]c3cc(-c4cnc(OC)c(C(=O)NCc5ccccc5OC(F)(F)F)c4)ccc23)CC1` (stereo not shown) [Example 184, N-[4-(diethylamino)cyclohexyl]-6-[6-methoxy-5-({[2-(trifluoro-methoxy)phenyl]methyl}carbam-oyl)pyridin-3-yl]-1H-indazole-3-carboxamide, TFA], the values for the IC50 in experiment [1] and in experiment [2] were 88 nM and 7 nM, respectively.

Take `COc1ncc(-c2ccc3c(C(=O)NC4CCC(N(C)C)CC4)n[nH]c3c2)cc1C(=O)NCc1ccccc1OC(F)(F)F` (stereo not shown) [Example 185, N-[4-(dimethylamino)cyclo-hexyl]-6-[6-methoxy-5-({[2-(trifluoromethoxy)phenyl]-methyl}carbamoyl)pyridin-3-yl]-1H-indazole-3-carboxamide]: the IC50 in experiment [1] worked out at 110 nM; in experiment [2], 13 nM.

Take `COc1ccccc1N1CC(NC(=O)c2n[nH]c3cc(-c4cnc(OC)c(C(=O)NCc5ccccc5OC(F)(F)F)c4)ccc23)CC1=O` (stereo not shown) [Example 186, 6-[6-methoxy-5-({[2-(trifluoro-methoxy)phenyl]methyl}-carbamoyl)pyridin-3-yl]-N-[1-(2-methoxyphenyl)-5-oxo-pyrrolidin-3-yl]-1H-indazole-3-carboxamide]: the IC50 in experiment [1] was 13 nM; in experiment [2], 95 nM.

As for `COc1ncc(-c2ccc3c(C(=O)NC4CC(=O)N(C)C4)n[nH]c3c2)cc1C(=O)NCc1ccccc1OC(F)(F)F` (stereo not shown) [Example 187, 6-[6-methoxy-5-({[2-(trifluoro-methoxy)phenyl]methyl}-carbamoyl)pyridin-3-yl]-N-(1-methyl-5-oxopyrrolidin-3-yl)-1H-indazole-3-carboxamide, TFA], the IC50 in experiment [1] is 78 nM; in experiment [2], 28 nM.

Consider `COc1ncc(-c2ccc3c(C(=O)NC4CCC(O)CC4)n[nH]c3c2)cc1C(=O)NCc1ccccc1OC(F)(F)F` (stereo not shown) [Example 189, 6-[6-methoxy-5-({[2-(trifluoro-methoxy)phenyl]methyl}-carbamoyl)pyridin-3-yl]-N-[(1r,4r)-4-hydroxycyclohexyl]-1H-indazole-3-carboxamide], for which the IC50 in experiment [1] turned out to be 30 nM; in experiment [2], 9.6 nM.

For the molecule `[2H]C([2H])([2H])Oc1ncc(-c2ccc3c(C(=O)NC4CC4)n[nH]c3c2)cc1C(=O)N[C@@H]1CN(C(=O)C2CC(F)(F)C2)C[C@@H]1F` [Example 190, N-cyclopropyl-6-(5-{[(3R,4S)-1-(3,3-difluorocyclobutanecarbonyl)-4-fluoropyrrolidin-3-yl]carbamoyl}-6-(deutero)methoxypyridin-3-yl)-1H-indazole-3-carboxamide], the figures for the IC50 in experiment [1] and in experiment [2] were 290 nM and 100 nM, respectively.

Take `[2H]C([2H])([2H])Oc1ncc(-c2ccc3c(C(=O)NC4CC(F)(F)C4)n[nH]c3c2)cc1C(=O)N[C@@H]1CN(C(=O)C2CC(F)(F)C2)C[C@@H]1F` [Example 191, 6-(5-{[(3R,4S)-1-(3,3-difluorocyclo-butanecarbonyl)-4-fluoropyrrolidin-3-yl]carbamoyl}-6-(deutero)methoxy-pyridin-3-yl)-N-(3,3-difluorocyclo-butyl)-1H-indazole-3-carboxamide]: the IC50 in experiment [1] was 89 nM; in experiment [2], 120 nM.

As for `[2H]C([2H])([2H])Oc1ncc(-c2ccc3c(C(=O)NCC(C)(C)F)n[nH]c3c2)cc1C(=O)N[C@@H]1CN(C(=O)C2CC(F)(F)C2)C[C@@H]1F` [Example 193, 6-(5-{[(3R,4S)-1-(3,3-difluorocyclo-butanecarbonyl)-4-fluoropyrrolidin-3-yl]carbamoyl}-6-(deutero)methoxy-pyridin-3-yl)-N-(2-fluoro-2-methyl-propyl)-1H-indazole-3-carboxamide], the IC50 in experiment [1] stood at 480 nM; in experiment [2] it was 260 nM.
